The values that follow are results of earlier work, collected in patent publication US20060078583A1, “Device for delivering an anti-microbial composition” (priority 2004, published 2006).

One series deals with rhinovirus. The following applies: on skin.
In series [1] the test system is rhinoviral infections (colds). To be noted: subjects who used iodine products.

Regarding `II` [iodine], the residual anti-rhinoviral activity result with rhinovirus is “provides residual anti-rhinoviral activity on skin”. Moreover, the “number of colds versus placebo users” value in series [1] is listed as “significantly fewer colds than placebo users”.
